Data from US9789096B2, “Methods and compositions for selective and targeted cancer therapy” (Board of Regents of the University of Texas System, priority 2013, dated 2017).
Like-named read-outs stand apart in the source and are kept apart here.

Columns and labels:
H2122 = test: Cell viability dose-response, H2122; format: cell-based, human
Method in brief: (§1)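 Viability read as total ATP (Cell Titer Glo) following 4 days' compound exposure, with IC50 derived from dose-response curves. Duplicate 12-point series, top concentration 50 micromolar with 3-fold steps, on cells seeded at 15% confluence in RPMI-1640, 5% FBS, 2 mM L-glutamine.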

[1] = system: 12 lung adenocarcinoma cell lines; test: Proliferation of the panel of 12 lung adenocarcinoma cell lines; format: cell-based, human
Description: (§2) FIG. 6A. […] Cell viability is plotted vs. compound concentration. Compound was added to cells plated at 15% confluence in 96-well plates in RPMI-1640 media supplemented with 5% Fetal Bovine Serum and 2 mM L-Glutamine. After 4 days of incubation, ATP levels were measured using Cell Titer Glo (Promega). Data are presented as the average of 2 replicates ±SEM.
To discover selective agents, twelve cell lines of diverse genotype were selected for analysis. 108 lung cancer cell lines were initially clustered into six groups based on mRNA expression of genes that underwent frequent copy number variation. Two cell lines were chosen from each group for high throughput chemical screening. All 12 of the chosen cell lines were derived from lung adenocarcinomas, eliminating both lineage and histology as confounders. None of the cell lines chosen for screening harbored EGFR mutations or ALK rearrangements, so that the final set represented a collection of diverse lung adenocarcinoma genotypes for which there are no targeted therapy.
The proliferative impact of each compound in the library was assayed by analyzing total ATP four days after administration of 2.5 μM in a single well. This first pass yielded 15,843 toxins defined as a compound where ATP levels were […] three standard deviations below the mean for at least one cell line. For each of these putative toxins, the average effect on proliferation was retested on each cancer cell line and a non-cancerous immortalized HBEC line (control), yielding a confirmation dataset.
In addition, N-acyl benzothiazoles was also discovered, such as 4-amino-N-(6-methoxybenzo[d]thiazol-2-yl)benzamide (ATB). We compared the proliferation of 12 lung adenocarcinoma cell lines and three HBEC lines after the addition of ATB.
We subsequently synthesized various derivatives that are both selective and potent (Tables 1 and 2). One leading candidate is a benzothiazole, SW202857, that inhibits proliferation in three of 12 adenocarcinoma cell lines at concentrations less than 10 nM.

H2009 = test: Cell viability dose-response, H2009; format: cell-based, human; conditions: Homo sapiens, NCI-H2009
Method in brief: (§3)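 Proliferation/viability determined by ATP content following 4-day incubation with test compound in RPMI-1640 + 5% serum + 2 mM glutamine. IC50 taken as the concentration halving ATP signal on the dose-response curve.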

HCC4017 = test: Cell viability dose-response, HCC4017; format: cell-based, human; conditions: Homo sapiens
Description: as §2
(§4) Selectivity may be measured by the half maximal inhibitory concentration (IC50), which, as used herein, is a measure of the effectiveness of a compound in killing cells. This quantitative measure indicates how much of a particular compound is needed to kill a particular cell population by half (e.g., as indicated by the amount of ATP). […] The IC50 can be determined by constructing a dose-response curve. The lower the IC50, the higher the potency, and the greater the difference between IC50 values for different cell lines (e.g., sensitive lines vs. insensitive lines, and sensitive lines vs. normal lines) the greater the selectivity. […]
(§5) With this information, we synthesized and tested a series of small molecules derived in conception from the oxalamide and chromone scaffold including N-acyl ureas, as shown in Tables 6-8. Each compound was tested in a 12-point dose-response study starting at 50 micromolar and decreasing in 3-fold increments to sub-nanomolar concentrations, in duplicate. Additionally, one or more additional cell line was tested in the same way.

H1395 = test: Cell viability dose-response, H1395; format: cell-based; conditions: Homo sapiens, NCI-H1395
Description: as §2, §4, §5

H1993 = test: Cell viability dose-response, H1993; format: cell-based; conditions: Homo sapiens, NCI-H1993
Description: as §2, §4, §5

HCC366 = test: Cell viability dose-response, HCC366; format: cell-based; conditions: Homo sapiens
Description: as §2, §4, §5

H2073 = test: Cell viability dose-response, H2073; format: cell-based, human; conditions: Homo sapiens
Method in brief: as §3

H460 = test: Cell viability dose-response, H460; format: cell-based; conditions: Homo sapiens, NCI-H460
Description: as §2, §4, §5

H1819 = test: Cell viability dose-response, H1819; format: cell-based, human
Method in brief: as §1

HCC95 = test: Cell viability dose-response, HCC95; format: cell-based; conditions: Homo sapiens
Description: as §2, §4, §5

HCC44 = test: Cell viability dose-response, HCC44; format: cell-based, human; conditions: Homo sapiens
Method in brief: as §3

HBEC30KT = test: Cell viability (ATP, Cell Titer Glo, 4 days), HBEC30KT; format: cell-based, human; conditions: Homo sapiens
H1155 = test: Cell viability dose-response, H1155; format: cell-based; conditions: Homo sapiens, NCI-H1155
Description: as §2, §4, §5

H2122 cells = test: Toxicity to H2122 cells with or without CYP4 inhibitor HET0016; format: cell-based, human
[2] = 12-point dose-response starting at 50 micromolar, 3-fold increments, in duplicate, read-out: toxicity data, H2009
[3] = HCC4017, 12-point dose-response starting at 50 micromolar, 3-fold increments, in duplicate, read-out: toxicity data, HCC4017
[4] = 12-point dose-response starting at 50 micromolar, 3-fold increments, in duplicate, read-out: toxicity data, H1395
[5] = 12-point dose-response starting at 50 micromolar, 3-fold increments, in duplicate, read-out: toxicity data, H1993
[6] = 12-point dose-response starting at 50 micromolar, 3-fold increments, in duplicate, read-out: toxicity data, HCC366
[7] = NCI-H2073, 12-point dose-response starting at 50 micromolar, 3-fold increments, in duplicate, read-out: toxicity data, H2073
[8] = Homo sapiens, NCI-H2122, 12-point dose-response starting at 50 micromolar, 3-fold increments, in duplicate, read-out: toxicity data, H2122
[9] = 12-point dose-response starting at 50 micromolar, 3-fold increments, in duplicate, read-out: toxicity data, H460
[10] = Homo sapiens, NCI-H1819, 12-point dose-response starting at 50 micromolar, 3-fold increments, in duplicate, read-out: toxicity data, H1819
[11] = 12-point dose-response starting at 50 micromolar, 3-fold increments, in duplicate, read-out: toxicity data, HCC95
[12] = HCC44, 12-point dose-response starting at 50 micromolar, 3-fold increments, in duplicate, read-out: toxicity data, HCC44
[13] = 12-point dose-response starting at 50 micromolar, 3-fold increments, in duplicate, read-out: toxicity data, HBEC30KT
[14] = 12-point dose-response starting at 50 micromolar, 3-fold increments, in duplicate, read-out: toxicity data, H1155
[15] = Tables 3 and 4, read-out: IC50 (uM) vs indicated non-small cell lung cancer cell line H2009
[16] = HCC4017, Tables 3 and 4, read-out: IC50 (uM) vs indicated non-small cell lung cancer cell line HCC4017
[17] = Tables 3 and 4, read-out: IC50 (uM) vs indicated non-small cell lung cancer cell line H1395
[18] = Tables 3 and 4, read-out: IC50 (uM) vs indicated non-small cell lung cancer cell line H1993
[19] = Tables 3 and 4, read-out: IC50 (uM) vs indicated non-small cell lung cancer cell line HCC366
[20] = NCI-H2073, Tables 3 and 4, read-out: IC50 (uM) vs indicated non-small cell lung cancer cell line H2073
[21] = Homo sapiens, NCI-H2122, Tables 3 and 4, read-out: IC50 (uM) vs indicated non-small cell lung cancer cell line H2122
[22] = Tables 3 and 4, read-out: IC50 (uM) vs indicated non-small cell lung cancer cell line H460
[23] = Homo sapiens, NCI-H1819, Tables 3 and 4, read-out: IC50 (uM) vs indicated non-small cell lung cancer cell line H1819
[24] = Tables 3 and 4, read-out: IC50 (uM) vs indicated non-small cell lung cancer cell line HCC95
[25] = HCC44, Tables 3 and 4, read-out: IC50 (uM) vs indicated non-small cell lung cancer cell line HCC44
[26] = Tables 3 and 4, read-out: HBEC30KT IC50
[27] = Tables 3 and 4, read-out: IC50 (uM) vs indicated non-small cell lung cancer cell line H1155
[28] = Homo sapiens, NCI-H2122, Table 9, competitor, read-out: IC50 to H2122 cells

| Structure (SMILES) | IC50 (H2009; [2]) [µM] | IC50 (HCC4017; [3]) [µM] | IC50 (H1395; [4]) [µM] | IC50 (H1993; [5]) [µM] | IC50 (HCC366; [6]) [µM] | IC50 (H2073; [7]) [µM] | IC50 (H460; [9]) [µM] | IC50 (HCC95; [11]) [µM] | IC50 (HCC44; [12]) [µM] | IC50 (HBEC30KT; [13]) [µM] | IC50 (H1155; [14]) [µM] | IC50 (H2009; [15]) [µM] | IC50 (HCC4017; [16]) [µM] | IC50 (H1395; [17]) [µM] | IC50 (H1993; [18]) [µM] | IC50 (HCC366; [19]) [µM] | IC50 (H2073; [20]) [µM] | IC50 (H2122; [21]) [µM] | IC50 (H460; [22]) [µM] | IC50 (H1819; [23]) [µM] | other results |
| --- | --- | --- | --- | --- | --- | --- | --- | --- | --- | --- | --- | --- | --- | --- | --- | --- | --- | --- | --- | --- | --- |
| COc1ccc2nc(NC(=O)c3ccc(N)cc3)sc2c1 [ATB, 4-amino-N-(6-methoxybenzo[d]thiazol-2-yl)benzamide] |  |  |  |  |  |  |  |  |  |  |  |  |  |  |  |  |  |  |  |  | IC50 (H2122; Homo sapiens, NCI-H2122, read-out: IC50 against the most sensitive cell line (H2122)): 0.048 µM; IC50 ([1]; Homo sapiens, read-out: IC50 against 10 other cell lines, including the normal line): > 1 µM |
| COc1ccc(CCNC(=O)C(=O)Nc2ccc(C)c(C)c2)cc1 [SW027949] | ≥ 50 | ≥ 50 | 50 | 50 | 50 | ≥ 50 | 1.31 | 0.17 | ≥ 50 | 41.5 | 50 |  |  |  |  |  |  |  |  |  | IC50 (H2122; [8]): 0.7 µM; IC50 (H1819; [10]): ≥ 50 µM |
| COc1ccc(CCNC(=O)C(=O)Nc2ccc(Cl)cc2)cc1 [SW027951] | ≥ 50 | ≥ 50 | 50 | 50 | 50 | ≥ 50 | 1.34 | 0.09 | ≥ 50 | 50 | 50 |  |  |  |  |  |  |  |  |  | IC50 (H2122; [8]): 0.15 µM; IC50 (H1819; [10]): ≥ 50 µM |
| COc1ccc(CCNC(=O)C(=O)Nc2cccc(Br)c2)cc1 [SW027952] | 11.3 | ≥ 50 | 50 | 50 | 50 | 17.5 | 50 | 0.24 | ≥ 50 | 19.8 | 50 |  |  |  |  |  |  |  |  |  | IC50 (H2122; 12-point dose-response starting at 50 micromolar, 3-fold increments, in duplicate, read-out: toxicity data, H2122): 1.04 µM; IC50 (H1819; 12-point dose-response starting at 50 micromolar, 3-fold increments, in duplicate, read-out: toxicity data, H1819): ≥ 50 µM |
| NC(=O)c1c(NC(=O)c2sc3ccccc3c2Cl)sc2c1CCCCC2 [SW155113] |  |  |  |  |  |  |  |  |  |  |  | 32 | 23 | 13.4 | 8.1 | 22.5 | 6 | 0.36 | 29 | 14 | IC50 (HCC95; [24]): 100 µM; IC50 (HCC44; [25]): 27 µM; IC50 (HBEC30KT; [26]): 33 µM; IC50 (H1155; [27]): 14.5 µM |
| COc1ccc2nc(NC(=O)c3ccc(OCc4ccccc4)cc3)sc2c1 [SW202773-1] |  |  |  |  |  |  |  |  |  |  |  | 16.6 | 21.1 | 25.9 | 21.7 | 41.8 | 0.268 | 0.0431 | 0.157 | 42.9 | IC50 (HCC95; [24]): 0.163 µM; IC50 (HCC44; [25]): 0.122 µM; IC50 (HBEC30KT; [26]): 24.9 µM; IC50 (H1155; [27]): 23.6 µM |
| COc1ccc(C(=O)c2ccc(NC(=O)c3sc4ccccc4c3Cl)cc2)cc1 [SW202855-1] |  |  |  |  |  |  |  |  |  |  |  | 13.9 | 15.7 | 28.4 | 17.8 | 49 | 36.2 | 18.3 | 28.8 | 32 | IC50 (HCC95; [24]): 9.84 µM; IC50 (HCC44; [25]): 25.4 µM; IC50 (HBEC30KT; [26]): 24.3 µM; IC50 (H1155; [27]): 46.1 µM |
| COc1ccc(CCNC(=O)NC(=O)c2ccc(Oc3ccccc3)cc2)cc1 [SW208456] |  |  |  |  |  |  |  |  |  |  |  |  |  |  |  |  |  |  |  |  | IC50 (H2122; [28]): 0.0134 µM; toxicity to H2122 cells in the presence of CYP450 inhibitor HET0016 (H2122 cells): rescued |
| O=C(NCCc1ccc(O)cc1)NC(=O)c1ccc(Oc2ccccc2)cc1 [SW208523] |  |  |  |  |  |  |  |  |  |  |  |  |  |  |  |  |  |  |  |  | IC50 (H2122; [28]): 0.0197 µM; toxicity to H2122 cells in the presence of CYP450 inhibitor HET0016 (H2122 cells): toxic to H2122 cells in the presence or absence of the CYP450 inhibitor |
| CNC(=O)c1cccc(NC(=O)N2CCC(Oc3ccccc3Cl)CC2)c1 [compound 28c, reference compound] |  |  |  |  |  |  |  |  |  |  |  |  |  |  |  |  |  |  |  |  | toxicity to the same 4 non-small cell lung cancer cell lines ([1]; FIG. 8E): toxic |
